What was measured:
A. aegypti L1 larvae = assay: Efficacy against A. aegypti mosquitos (L1 larvae motility, dose response); type: in vivo; conditions: Aedes aegypti; ten A. aegypti L1 larvae, diluted LB media, 25° C., 48h; read-out: EC50 (motility of larvae compared to DMSO control wells)
Experimental: Method A: Efficacy of Compounds Against A. aegypti Mosquitos Compounds were formulated in 100% DMSO are added to microtiter plates containing 180 μl of diluted LB media (Luria-Bertani media is a combination of tryptone, salt and yeast extract). Ten A. aegypti L1 larvae are added and the plates are incubated at 25° C. for 48h. The efficacy of a compound is determined based on the motility of the larvae as compared to average motility of control wells containing DMSO only. A dose response assay was conducted to determine an EC50 value.

[1] = system: adult Ctenocephalides felis; assay: Efficacy against fleas when ingested (treated bovine blood membrane feeding); type: in vivo; conditions: adult Ctenocephalides felis fed on treated bovine blood, 72 hour assessment, compared with untreated controls
Source text: Method B: Efficacy of Compounds Against Fleas when Ingested
A cylindrical test container was filled with 10 adult Ctenocephalides felis. A cylindrical well was closed on one end with a self-sealing flexible film and placed on top of the test container in such a position that the fleas could pierce the film and feed on the contents of the cylinder. The test compound solution was then pipetted into bovine blood and added to the well. The container part with the Ctenocephalides felis was held at 20-22° C. and 40-60% relative humidity while the well part containing the treated blood was held at 37° C. and 40-60% relative humidity. Assessment was performed at 72 hours after application in comparison with untreated controls.

| SMILES | EC50 (A. aegypti L1 larvae) | LC50 [1] |
| --- | --- | --- |
| Cc1cc(C2=NOC(c3cc(C(F)(F)F)nn3C)(C(F)(F)F)C2)ccc1C(=O)NCC(=O)NCC(F)(F)F (centres unmarked) [Compound 2-1, 2-[(2-Methyl-4-[5-[1-methyl-3-(trifluoromethyl)-1H-pyrazol-5-yl]-5-(trifluoromethyl)-4,5-dihydro-1,2-oxazol-3-yl]phenyl)formamido]-N-(2,2,2-trifluoroethyl)acetamide] | < 10 µM | < 20 µM |
| Cn1nc(C(F)(F)F)cc1C1(C(F)(F)F)CC(c2ccc(C(=O)NCC(=O)NCC(F)(F)F)c3ccccc23)=NO1 (centres unmarked) [Compound 2-2, 2-[(4-[5-[1-methyl-3-(trifluoromethyl)-1H-pyrazol-5-yl]-5-(trifluoromethyl)-4,5-dihydro-1,2-oxazol-3-yl]naphthalen-1-yl)formamido]-N-(2,2,2-trifluoroethyl)acetamide] | < 10 µM | < 20 µM |
| Cn1nc(C(F)(F)F)cc1C1(C(F)(F)F)CC(c2ccc3c(c2)COC32CN(C(=O)CS(C)(=O)=O)C2)=NO1 (centres unmarked) [Compound 2-3, 1-(5′-(5-(1-methyl-3-(trifluoromethyl)-1H-pyrazol-5-yl)-5-(trifluoromethyl)-4,5-dihydroisoxazol-3-yl)-3′H-spiro[azetidine-3,1′-isobenzofuran]-1-yl)-2-(methylsulfonyl)ethan-1-one] | < 10 µM | < 20 µM |
| CSCCNC(=O)c1ccc(C2=NOC(c3cc(C(F)(F)F)nn3C)(C(F)(F)F)C2)cc1C (centres unmarked) [Compound 2-4, 2-methyl-4-[5-[1-methyl-3-(trifluoromethyl)-1H-pyrazol-5-yl]-5-(trifluoromethyl)-4,5-dihydro-1,2-oxazol-3-yl]-N-[2-(methylsulfanyl)ethyl]benzamide] | < 10 µM | < 20 µM |
| Cc1cc(C2=NOC(c3cc(C(F)(F)F)nn3C)(C(F)(F)F)C2)ccc1C(=O)NCCS(C)(=O)=O (centres unmarked) [Compound 2-5, N-(2-methanesulfonylethyl)-2-methyl-4-[5-[1-methyl-3-(trifluoromethyl)-1H-pyrazol-5-yl]-5-(trifluoromethyl)-4,5-dihydro-1,2-oxazol-3-yl]benzamide] | < 10 µM | < 20 µM |
| Cc1cc(C2=NOC(c3cc(C(F)(F)F)nn3C)(C(F)(F)F)C2)ccc1C(=O)NCC(F)(F)F (centres unmarked) [Compound 2-6, 2-methyl-4-[5-[1-methyl-3-(trifluoromethyl)-1H-pyrazol-5-yl]-5-(trifluoromethyl)-4,5-dihydro-1,2-oxazol-3-yl]-N-(2,2,2-trifluoroethyl)benzamide] | < 10 µM | < 50 µM |
| Cc1cc(C2=NOC(c3cc(C(F)(F)F)nn3C)(C(F)(F)F)C2)ccc1C(=O)NC1CC1 (centres unmarked) [Compound 2-7, N-cyclopropyl-2-methyl-4-[5-[1-methyl-3-(trifluoromethyl)-1H-pyrazol-5-yl]-5-(trifluoromethyl)-4,5-dihydro-1,2-oxazol-3-yl]benzamide] | < 10 µM | < 50 µM |
| C=CCNC(=O)c1ccc(C2=NOC(c3cc(C(F)(F)F)nn3C)(C(F)(F)F)C2)cc1C (centres unmarked) [Compound 2-8] | < 20 µM | – |
| Cn1nc(C(F)(F)F)cc1C1(C(F)(F)F)CC(c2ccc(C(=O)NCC(=O)NCC(F)(F)F)cc2)=NO1 (centres unmarked) [Compound 2-9, 2-[(4-[5-[1-Methyl-3-(trifluoromethyl)-1H-pyrazol-5-yl]-5-(trifluoromethyl)-4,5-dihydro-1,2-oxazol-3-yl]phenyl)formamido]-N-(2,2,2-trifluoroethyl) acetamide] | < 20 µM | – |
| Cn1nc(C(F)(F)F)cc1C1(C(F)(F)F)CC(c2ccc(Cl)c(C(=O)NC3CC3)c2)=NO1 (centres unmarked) [Compound 2-10, 2-Chloro-N-cyclopropyl-5-[5-[1-methyl-3-(trifluoromethyl)-1H-pyrazol-5-yl]-5-(trifluoromethyl)-4,5-dihydro-1,2-oxazol-3-yl]benzamide] | < 20 µM | – |
| Cc1cc(C2=NOC(c3cn(C)nc3C(F)(F)F)(C(F)(F)F)C2)ccc1C(=O)NCC(=O)NCC(F)(F)F (centres unmarked) [Compound 2-11, 2-[(2-methyl-4-[5-[1-methyl-3-(trifluoromethyl)-1H-pyrazol-4-yl]-5-(trifluoromethyl)-4,5-dihydro-1,2-oxazol-3-yl]phenyl)formamido]-N-(2,2,2-trifluoroethyl)acetamide] | < 20 µM | – |
| COCn1nc(C(F)(F)F)cc1C1(C(F)(F)F)CC(c2ccc(C(=O)NCC(=O)NCC(F)(F)F)c(C)c2)=NO1 (centres unmarked) [Compound 2-30, 2-[(4-[5-[1-(methoxymethyl)-3-(trifluoromethyl)-1H-pyrazol-5-yl]-5-(trifluoromethyl)-4,5-dihydro-1,2-oxazol-3-yl]-2-methylphenyl)formamido]-N-(2,2,2-trifluoroethyl)acetamide] | < 10 µM | – |
| COCn1nc(C2(C(F)(F)F)CC(c3ccc(C(=O)NCC(=O)NCC(F)(F)F)c(C)c3)=NO2)cc1C(F)(F)F (centres unmarked) [Compound 2-31, 4-(5-(1-(methoxymethyl)-5-(trifluoromethyl)-1H-pyrazol-3-yl)-5-(trifluoromethyl)-4,5-dihydroisoxazol-3-yl)-2-methyl-N-(2-oxo-2-(2,2,2-trifluoroethylamino)ethyl)benzamide] | < 10 µM | – |
